Test in series [1]: not given
This is another data set of the same source.

A short description of series [2]: Concentration-dependent circular dichroism in water. Type of series: physicochemical. The conditions noted are these: CD: no signal at 50 and 500 μM, Cotton effect at 1000 μM. An excerpt:
(§1) Since Ben-IKVAV and PFB-IKVAV could self-assemble to form the network of nanofibers and afford the hydrogels, we further studied the driving force for the intermolecular interactions of the hydrogelators using spectroscopic characterization. […] The UV-vis absorption and circular dichroism (CD) spectra of Ben-IKVAV and PFB-IKVAV in water and methanol are presented in Figure 4. The absorption peaks of Ben-IKVAV are at 262 nm and 254 nm in water and methanol, respectively, indicating the redshift feature caused by the aggregation formation in an aqueous solution. […] CD spectra were recorded to understand the structural properties and molecular arrangement of Ben-IKVAV and PFB-IKVAV (Figure 4C,D). At low concentrations of Ben-IKVAV and PFB-IKVAV (50 and 500 μM) in water, no CD signals were detected in the wavelength region 190–350 nm. […] In addition, Fourier-transform infrared spectroscopy (FT-IR) was employed to verify the hydrogen interactions between molecules in the self-assembled state. […] Since thioflavin T (ThT) is a well-known fluorescent dye utilized to identify the presence of amyloid fibrils, we used the ThT fluorescence assay to further confirm the fibrillar peptide structures present in Ben-IKVAV and PFB-IKVAV. It is known that when ThT binds to β-amyloid fibrils, a remarkable enhancement in fluorescence intensity can be detected at 484 nm. […]

For a further series, the system named is MAP2 in hMSCs. In words: Immunofluorescent staining for neuronal-specific marker MAP2. The class given is cell-based, human. As to conditions: neural induction medium in the presence of the peptide, day 7. An excerpt:
After neuronal inductions of hMSCs, immunofluorescent staining for neuronal-specific markers of β-tubulin and MAP2 was achieved. Figure 10 presents immunostaining for β-tubulin (green) with DAPI (blue) co-staining in hMSCs cultured with NIM (control), NIM in the presence of Ben-IKVAV, and NIM in the presence of PFB-IKVAV for days 1, 2, and 7. It can be seen that there is no β-tubulin stained on day 1. […] On the 7th day of culture, a more evident increase of β-tubulin was observed. […] It is speculated that the nuclear entry may be related to the initiation of the regulation of the gene level in the nucleus to make the differentiation more complete. […] After 7 days of differentiation, the cells gradually tended to mature nerve cells. Among these materials, PFB-IKVAV is the best one for helping cell differentiation.
After neuronal inductions of hMSCs, immunostaining was performed for neuronal-specific markers. Cells were fixed with 4% formaldehyde for 15 min and permeabilized with PBST buffer (0.1% Triton X-100 supplemented with BSA). After permeabilization, cells were blocked with Blocking buffer (PBST buffer + 5% serum) for 30 min and then incubated with primary antibodies β-tubulin (1:100) and MAP2 (1:200) at 4 °C overnight. […] Finally, cells were observed under a fluorescence microscope.

Series [3] can be described thus: Hydrogelation / self-assembly under physiological conditions. Type of series: physicochemical. The conditions noted are these: for hydrogel formation: 1 wt.% (ca. 15 mM), pH 7.4; for Tgel-sol: hydrogel. An excerpt: (§2) For biomedical applications, the self-assembly properties of Ben-IKVAV and PFB-IKVAV were investigated under physiological conditions. […] The corresponding microscopic morphologies were examined by transmission electron microscopy (TEM). […] The nanofibers are intertwined to form fiber bundles with a width of about 17 ± 1 nm. In contrast, PFB-IKVAV produces short nanofibers (diameter around 10 ± 1 nm). These fibrous nanostructures are distributed in water and entangled within a highly organized peptide-amphiphile nanofibers network (i.e., Ben-IKVAV and PFB-IKVAV), allowing for the formation of stable hydrogels. Moreover, the Tgel-sol of Ben-IKVAV and PFB-IKVAV were 65 and 55 °C, respectively. […] Furthermore, the self-assembly of Ben-IKVAV and PFB-IKVAV are viscoelastic gels, because the values of the G′ are higher than those of the loss modulus (G″) in both gels.

For series [4], the system named is hMSCs. In words: RT-qPCR analysis of neuronal-specific markers (Nestin, β-tubulin, SNCA, MAP2). The conditions noted are these: 1000 µM in NIM. Type of series: cell-based, human. Here is the method:
To investigate whether IKVAV derivatives can effectively promote the differentiation of stem cells into neural cells, we diluted 1 wt.% of Ben-IKVAV and PFB-IKVAV hydrogels with NIM to 1000 µM, respectively, and cultured hMSCs for 0, 2, and 7 days. The mRNA was collected from NIM, NIM in the presence of Ben-IKVAV, and NIM in the presence of PFB-IKVAV and subjected to real-time quantitative polymerase chain reaction (RT-qPCR) analysis. The expression of neuronal-specific markers, Nestin, β-tubulin, SNCA, and MAP2 are analyzed in this work.
Total RNA was isolated from the control and induced (Neurogenic) hMSCs and quantified with a spectrophotometer (NanoPhotometer™ Pearl Design Edition, Westlake Village, CA, USA). Complementary DNA (cDNA) was synthesized from the total purified RNA (1 μg) using a MMLV High-Performance Reverse Transcriptase kit with a 10 μM OligodT primer at 37 °C for 1 h. […] The RT-qPCR reaction was carried out with initial denaturation at 95 °C for 10 min, followed by 40 cycles of PCR at 95 °C for 15 s, and 60 °C for 60 s.
For orientation: In qPCR the cycle at which signal appears reflects the starting amount.

Series [5] concerns hMSCs. In words: Neural differentiation of hMSCs in neural induction medium (cell morphology, neurite outgrowth). The class given is cell-based, human. The conditions noted are these: 1000 μM in NIM; for differentiation of hMSCs into neuron-like cells: cultured 0, 2 and 7 days; for cell morphology and axon extension length (average neurite outgrowth length) versus NIM control: days 2 and 7, n = 50. How it is done:
Since Ben-IKVAV and PFB-IKVAV are biocompatible, we then diluted 1 wt.% of Ben-IKVAV and PFB-IKVAV hydrogels with basal medium and neural induction medium (NIM) to 1000 μM, respectively, and cultured them with hMSCs for 0, 2, and 7 days (Figure S2 and Figure 7). […] The fibrous structures of Ben-IKVAV or PFB-IKVAV scattered in the culture medium (NIM) are combined with cell surface receptors to promote neural differentiation. To understand the effect of neural differentiation of hMSCs, the average neurite outgrowth lengths on days 2 and 7 were measured in the control and experimental groups (i.e., Ben-IKVAV in NIM and PFB-IKVAV in NIM).
The hMSCs were grown in 24-well plates (density: 2.4 × 10^5 cells per well) in NIM supplemented with 1% penicillin/streptomycin, 10^−7 M dexamethasone, 50 μg/mL L-Ascorbic acid-2 phosphate, 50 μM indomethacin, 10 μg/mL insulin, and 0.45 mM 3-isobutyl-1-methyl-xanthine. The cells cultured in a basal medium were used as a negative control.

A short description of series [6]: Oscillatory rheology of the hydrogels. Type of series: physicochemical. As to conditions: 1 wt.%, pH 7.4, oscillatory rheology, ω = 0.1–100 rad·s^−1.
Source text: as §2
Figure 3 Frequency-dependent (ω = 0.1–100 rad·s^−1) rheological measurement of Ben-IKVAV (circle) and PFB-IKVAV (square) at a concentration of 1 wt.% under pH 7.4 (solid for G′ and open for G′′).

Series [7] can be described thus: Negatively stained TEM of the hydrogels. The class given is physicochemical. The conditions noted are these: 1 wt.%, pH 7.4.
Source text: as §2
Figure 2 Optical (insets) and negatively stained TEM images of (A) Ben-IKVAV and (B) PFB-IKVAV at a concentration of 1 wt.% under pH 7.4. (Scale bar: 100 nm).

Series [8] deals with hMSCs. In words: MTT cell viability test. Type of series: cell-based, human. As to conditions: for cell viability: 500 μM, 48 h, ODsample/ODcontrol; for pIC50: 10–500 μM, 24 and 48 h, read-out: half-inhibitory concentration (IC50). How it is done: To evaluate the potential biological applications of Ben-IKVAV and PFB-IKVAV, we performed a biocompatibility test of these hydrogelators against hMSCs through MTT [3-(4,5-dimethylthiazol-2-yl)-2,5-diphenyltetrazolium bromide] assay, and the results are presented in Figure 6. The concentrations of Ben-IKVAV and PFB-IKVAV were selected in the range of 10–500 μM, and the cell viability measurements were processed at 24 and 48 h after cell seeding.
The biocompatibilities of Ben-IKVAV and PFB-IKVAV were measured by the MTT cell viability test. The hMSCs were seeded in 24-well plates (density: 50,000 cells per well) with Dulbecco’s modified Eagle’s medium (DMEM, 0.5 mL) containing 10% […] and 1% penicillin/streptomycin solution and then incubated for 24 h. Compounds of Ben-IKVAV and PFB-IKVAV at different concentrations (10, 50, 100, 200, and 500 µM) were added when cells were plated. After 24 and 48 h, the medium was replaced with fresh medium supplemented with MTT reagent (4 mg mL^–1, 0.5 mL per well). After another 4 h, the medium containing MTT was removed, and DMSO (0.5 mL per well) was added to dissolve the formazan crystals. Each of the 24 wells was transferred to a 96-well plate. The optical densities (ODs) of the resulting solutions were measured at 595 nm using an absorbance microplate reader (Infinite F50, TECAN, Männedorf, Switzerland). Cells that had not been subjected to treatment with the compounds were used as the control. The cell viability percentage (%) was calculated from the expression ODsample/ODcontrol.
(Formazan colour is commonly taken as a measure of viable cells.)

Series [9] in a line: Thioflavin T (ThT) fluorescence assay for fibrillar peptide structures. Type of series: physicochemical. As to conditions: ratio of ThT emission intensities (I0: without adding hydrogelators), emission at 484 nm.
Source text: as §1

Test in series [10]: not given
The source holds these as a separate data set.

Test in series [11]: not given
This is another data set of the same source.

This note sets out measurements from paper PMC9267992, “Synthesis, Self-Assembly, and Cell Responses of Aromatic IKVAV Peptide Amphiphiles” (Molecules, 2022).

pIC50: −log10 of the molar value.

As for “perfluorophenyl-capped Ile-Lys-Val-Ala-Val”, the new absorption band in water stood at 285 nm. This substance showed an FT-IR absorption peak (hydrogen bonding) in [1] of 1630 cm⁻¹.
As for “perfluorophenyl-capped Ile-Lys-Val-Ala-Val [PFB-IKVAV, IKVAV N-terminally coupled with 2-(perfluorophenyl)acetic acid; hydrogelator]”, in [2], the “concentration at which the peptide self-assembles into high-order supramolecular structures” value is “higher than 1000 μM”. In the series on MAP2 in hMSCs, the “immunofluorescent staining for MAP2 relative to neural induction medium (control)” value came to 4.6 times. Besides, in [3], the hydrogel formation entry is listed as “form white translucent hydrogels” and the Tgel-sol was found to be 55 °C. In addition, in the series on hMSCs [4], the “cell differentiation ability (comparison of the two peptides)” value is “better cell differentiation ability than Ben-IKVAV”. Also, in the series on hMSCs [5], the “differentiation of hMSCs into neuron-like cells” value is on record as “could successfully differentiate hMSCs into neuron-like cells”; the “cell morphology and axon extension length (average neurite outgrowth length) versus NIM control” value is recorded as “no significant difference”. Also, the “storage modulus (G′)” value in series [6] came to 2.4 kPa. Also, in series [7], the nanofiber diameter entry is “around 10 ± 1 nm”. In addition, in the series on hMSCs [8], the cell viability result was “over 75%” and the pIC50 was less than 3.30. The “ThT fluorescence enhancement ratio” value in series [9] stood at 210.
For the substance phenyl-capped Ile-Lys-Val-Ala-Val, the absorption peak in water in series [10] was 262 nm. The substance further displayed an FT-IR absorption peak (hydrogen bonding) in series [1] of 1630 cm⁻¹. Besides, the absorption peak in methanol in [11] amounted to 254 nm.
For the substance “phenyl-capped Ile-Lys-Val-Ala-Val [Ben-IKVAV, phenyl-capped pentapeptide; IKVAV N-terminally coupled with 2-phenylacetic acid; hydrogelator]”, the “concentration at which the peptide self-assembles into high-order supramolecular structures” value in series [2] was “higher than 1000 μM”. In [3], the hydrogel formation entry is recorded as “form white translucent hydrogels” and the Tgel-sol came out at 65 °C. In the series with hMSCs [5], the “differentiation of hMSCs into neuron-like cells” value is on record as “could successfully differentiate hMSCs into neuron-like cells”; the “cell morphology and axon extension length (average neurite outgrowth length) versus NIM control” value was “no significant difference”. In addition, the “storage modulus (G′)” value in [6] came to 32.0 kPa. Also, in series [7], the nanofiber diameter is on record as 4 ± 2 nm and the “width of fiber bundles” value is “about 17 ± 1 nm”. Moreover, in the series on hMSCs [8], the cell viability result is reported as “over 75%” and the pIC50 is less than 3.30. Besides, the “ThT fluorescence enhancement ratio” value in [9] stood at 140.
